Measurements published in the NIST ThermoML archive (doi:10.1016/j.jct.2011.01.014).
± gives the expanded uncertainty stated by the source.

Experiment: xn = mol fraction of the nth substance listed
Conditions: 101 kPa, Liquid; for mass density: Vibrating tube method; for speed of sound: sound velocity cell

CC(=O)[O-].[NH3+]CCO [2-hydroxyethylammonium acetate] + CCO
Conditions	mass density [kg/m3]	speed of sound [m/s]
288.15 K, x1 = 0.0497	830.092 ± 0.7	1219.7 ± 1.4
288.15 K, x1 = 0.101	862.917 ± 0.59	1257.7 ± 1.4
288.15 K, x1 = 0.201	917.271 ± 0.55	1327 ± 1.6
288.15 K, x1 = 0.3009	964.134 ± 0.53	1410 ± 1.7
288.15 K, x1 = 0.4057	1005.85 ± 0.59	1470.2 ± 1.9
288.15 K, x1 = 0.4946	1036.29 ± 0.73	1529.9 ± 2.1
288.15 K, x1 = 0.603	1068.79 ± 0.99	1601.6 ± 2.3
288.15 K, x1 = 0.6765	1088.47 ± 1.2	1646.3 ± 2.5
288.15 K, x1 = 0.7918	1116.27 ± 1.6	1707.9 ± 2.7
288.15 K, x1 = 0.8825	1135.66 ± 2	1756.7 ± 2.9
288.15 K, x1 = 0.9539	1148.76 ± 2.3	1806.7 ± 3.1
288.15 K, x1 = 1	1154.7 ± 2.6	1817.2 ± 3.2
290.65 K, x1 = 0.0497	828.024 ± 0.7	1211.3 ± 1.4
290.65 K, x1 = 0.101	860.918 ± 0.59	1249.6 ± 1.4
290.65 K, x1 = 0.201	915.381 ± 0.55	1319.3 ± 1.6
290.65 K, x1 = 0.3009	962.336 ± 0.53	1402.9 ± 1.7
290.65 K, x1 = 0.4057	1004.14 ± 0.59	1463.2 ± 1.9
290.65 K, x1 = 0.4946	1034.64 ± 0.73	1523 ± 2.1
290.65 K, x1 = 0.603	1067.23 ± 0.99	1594.9 ± 2.3
290.65 K, x1 = 0.6765	1086.9 ± 1.2	1639.6 ± 2.5
290.65 K, x1 = 0.7918	1114.76 ± 1.6	1700.5 ± 2.7
290.65 K, x1 = 0.8825	1134.02 ± 2	1749.4 ± 2.9
290.65 K, x1 = 0.9539	1147.23 ± 2.3	1796 ± 3.1
290.65 K, x1 = 1	1153.28 ± 2.6	1810 ± 3.2
293.15 K, x1 = 0.0497	825.955 ± 0.7	1203 ± 1.4
293.15 K, x1 = 0.101	858.918 ± 0.59	1241.5 ± 1.4
293.15 K, x1 = 0.201	913.49 ± 0.55	1311.7 ± 1.6
293.15 K, x1 = 0.3009	960.535 ± 0.53	1395.7 ± 1.7
293.15 K, x1 = 0.4057	1002.43 ± 0.59	1456.2 ± 1.9
293.15 K, x1 = 0.4946	1033 ± 0.73	1516.3 ± 2.1
293.15 K, x1 = 0.603	1065.67 ± 0.99	1588.4 ± 2.3
293.15 K, x1 = 0.6765	1085.33 ± 1.2	1633.2 ± 2.4
293.15 K, x1 = 0.7918	1113.26 ± 1.6	1693.3 ± 2.7
293.15 K, x1 = 0.8825	1132.52 ± 2	1741.7 ± 2.9
293.15 K, x1 = 0.9539	1145.67 ± 2.3	1786.6 ± 3.1
293.15 K, x1 = 1	1151.87 ± 2.5	1803.2 ± 3.2
295.65 K, x1 = 0.0497	823.881 ± 0.7	1194.7 ± 1.4
295.65 K, x1 = 0.101	856.913 ± 0.59	1233.5 ± 1.4
295.65 K, x1 = 0.201	911.596 ± 0.55	1304 ± 1.6
295.65 K, x1 = 0.3009	958.737 ± 0.53	1388.5 ± 1.7
295.65 K, x1 = 0.4057	1000.73 ± 0.59	1449.2 ± 1.9
295.65 K, x1 = 0.4946	1031.36 ± 0.72	1509.6 ± 2.1
295.65 K, x1 = 0.603	1064.1 ± 0.98	1582 ± 2.3
295.65 K, x1 = 0.6765	1083.81 ± 1.2	1626.8 ± 2.4
295.65 K, x1 = 0.7918	1111.76 ± 1.6	1686.5 ± 2.7
295.65 K, x1 = 0.8825	1131.06 ± 2	1734.5 ± 2.9
295.65 K, x1 = 0.9539	1144.09 ± 2.3	1778 ± 3.1
295.65 K, x1 = 1	1150.45 ± 2.5	1796.8 ± 3.2
298.15 K, x1 = 0.0497	821.798 ± 0.7	1186.5 ± 1.4
298.15 K, x1 = 0.101	854.902 ± 0.59	1225.5 ± 1.4
298.15 K, x1 = 0.201	909.701 ± 0.55	1296.4 ± 1.6
298.15 K, x1 = 0.3009	956.936 ± 0.53	1381.3 ± 1.7
298.15 K, x1 = 0.4057	999.015 ± 0.59	1442.3 ± 1.9
298.15 K, x1 = 0.4946	1029.72 ± 0.72	1502.9 ± 2.1
298.15 K, x1 = 0.603	1062.53 ± 0.98	1575.6 ± 2.3
298.15 K, x1 = 0.6765	1082.31 ± 1.2	1620.4 ± 2.4
298.15 K, x1 = 0.7918	1110.26 ± 1.6	1679.8 ± 2.7
298.15 K, x1 = 0.8825	1129.61 ± 2	1727.5 ± 2.9
298.15 K, x1 = 0.9539	1142.5 ± 2.3	1769.9 ± 3.1
298.15 K, x1 = 1	1149.04 ± 2.5	1790.7 ± 3.2
300.65 K, x1 = 0.0497	819.712 ± 0.7	1178.2 ± 1.4
300.65 K, x1 = 0.101	852.887 ± 0.59	1217.5 ± 1.4
300.65 K, x1 = 0.201	907.8 ± 0.55	1288.8 ± 1.6
300.65 K, x1 = 0.3009	955.132 ± 0.53	1374.2 ± 1.7
300.65 K, x1 = 0.4057	997.306 ± 0.59	1435.3 ± 1.9
300.65 K, x1 = 0.4946	1028.07 ± 0.72	1496.2 ± 2.1
300.65 K, x1 = 0.603	1060.96 ± 0.98	1569.2 ± 2.3
300.65 K, x1 = 0.6765	1080.8 ± 1.2	1614.2 ± 2.4
300.65 K, x1 = 0.7918	1108.76 ± 1.6	1673.3 ± 2.7
300.65 K, x1 = 0.8825	1128.15 ± 2	1720.9 ± 2.9
300.65 K, x1 = 0.9539	1141.04 ± 2.3	1762.4 ± 3.1
300.65 K, x1 = 1	1147.63 ± 2.5	1784.8 ± 3.2
303.15 K, x1 = 0.0497	817.614 ± 0.71	1170 ± 1.4
303.15 K, x1 = 0.101	850.864 ± 0.6	1209.5 ± 1.4
303.15 K, x1 = 0.201	905.897 ± 0.55	1281.2 ± 1.6
303.15 K, x1 = 0.3009	953.327 ± 0.53	1367 ± 1.7
303.15 K, x1 = 0.4057	995.593 ± 0.59	1428.4 ± 1.9
303.15 K, x1 = 0.4946	1026.43 ± 0.72	1489.6 ± 2.1
303.15 K, x1 = 0.603	1059.37 ± 0.97	1562.8 ± 2.3
303.15 K, x1 = 0.6765	1079.28 ± 1.2	1608 ± 2.4
303.15 K, x1 = 0.7918	1107.26 ± 1.6	1667 ± 2.7
303.15 K, x1 = 0.8825	1126.69 ± 2	1714.5 ± 2.9
303.15 K, x1 = 0.9539	1139.62 ± 2.3	1755.4 ± 3.1
303.15 K, x1 = 1	1146.22 ± 2.5	1779 ± 3.2
305.65 K, x1 = 0.0497	815.509 ± 0.71	–
305.65 K, x1 = 0.101	848.835 ± 0.6	–
305.65 K, x1 = 0.201	903.988 ± 0.55	–
305.65 K, x1 = 0.3009	951.519 ± 0.53	–
305.65 K, x1 = 0.4057	993.881 ± 0.59	–
305.65 K, x1 = 0.4946	1024.78 ± 0.72	–
305.65 K, x1 = 0.603	1057.78 ± 0.97	–
305.65 K, x1 = 0.6765	1077.76 ± 1.2	–
305.65 K, x1 = 0.7918	1105.75 ± 1.6	–
305.65 K, x1 = 0.8825	1125.23 ± 2	–
305.65 K, x1 = 0.9539	1138.2 ± 2.3	–
305.65 K, x1 = 1	1144.8 ± 2.5	–
